This is an account of results in US20230365576A1, “BRM Targeting Compounds And Associated Methods Of Use” (Prelude Therapeutics Incorporated, priority 2022, published 2023).

Test [1] addresses T1, SMARCA4 (Homo sapiens, UniProt P51532).
T1 construct: SMARCA4-HiBiT knock-in Hela monoclonal cell (CS3023226) were purchased from Promega; host or cells: HeLa (CRISPR HiBiT knock-in monoclonal line, heterozygous)
The test can be described thus: SMARCA4 HiBiT degradation assay in HeLa cells. Type of test: cell-based. The note with it: 18 hours; for Dmax: HeLa. Put shortly: (§1)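 Degradation measured as HiBiT luminescence (Nano-Glo lytic reagent) after 18 h compound exposure at 37° C. Cells were HeLa clones carrying heterozygous HiBiT tags on SMARCA2 or SMARCA4, 2500 per well; compounds at 3-fold serial dilution from 10 μM.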
In general terms: The HiBiT peptide binds its large partner to form an active luciferase.

Test [2] concerns the target T2, SMARCA2 (Homo sapiens, UniProt P51531).
T2 construct: SMARCA2-HiBiT knock-in Hela monoclonal cell (CS302366); host or cells: HeLa (CRISPR HiBiT knock-in monoclonal line, heterozygous)
The test can be described thus: SMARCA2 HiBiT degradation assay in HeLa cells. It is filed as cell-based. The following applies: 18 hours; for DC50: read-out: SMARCA2 IC50; for Dmax: HeLa. Put shortly: as §1

Each structure is given as a SMILES string. A value given as a limit tells only on which side of the number the result lay.

T2 sequence (P51531 whole entry): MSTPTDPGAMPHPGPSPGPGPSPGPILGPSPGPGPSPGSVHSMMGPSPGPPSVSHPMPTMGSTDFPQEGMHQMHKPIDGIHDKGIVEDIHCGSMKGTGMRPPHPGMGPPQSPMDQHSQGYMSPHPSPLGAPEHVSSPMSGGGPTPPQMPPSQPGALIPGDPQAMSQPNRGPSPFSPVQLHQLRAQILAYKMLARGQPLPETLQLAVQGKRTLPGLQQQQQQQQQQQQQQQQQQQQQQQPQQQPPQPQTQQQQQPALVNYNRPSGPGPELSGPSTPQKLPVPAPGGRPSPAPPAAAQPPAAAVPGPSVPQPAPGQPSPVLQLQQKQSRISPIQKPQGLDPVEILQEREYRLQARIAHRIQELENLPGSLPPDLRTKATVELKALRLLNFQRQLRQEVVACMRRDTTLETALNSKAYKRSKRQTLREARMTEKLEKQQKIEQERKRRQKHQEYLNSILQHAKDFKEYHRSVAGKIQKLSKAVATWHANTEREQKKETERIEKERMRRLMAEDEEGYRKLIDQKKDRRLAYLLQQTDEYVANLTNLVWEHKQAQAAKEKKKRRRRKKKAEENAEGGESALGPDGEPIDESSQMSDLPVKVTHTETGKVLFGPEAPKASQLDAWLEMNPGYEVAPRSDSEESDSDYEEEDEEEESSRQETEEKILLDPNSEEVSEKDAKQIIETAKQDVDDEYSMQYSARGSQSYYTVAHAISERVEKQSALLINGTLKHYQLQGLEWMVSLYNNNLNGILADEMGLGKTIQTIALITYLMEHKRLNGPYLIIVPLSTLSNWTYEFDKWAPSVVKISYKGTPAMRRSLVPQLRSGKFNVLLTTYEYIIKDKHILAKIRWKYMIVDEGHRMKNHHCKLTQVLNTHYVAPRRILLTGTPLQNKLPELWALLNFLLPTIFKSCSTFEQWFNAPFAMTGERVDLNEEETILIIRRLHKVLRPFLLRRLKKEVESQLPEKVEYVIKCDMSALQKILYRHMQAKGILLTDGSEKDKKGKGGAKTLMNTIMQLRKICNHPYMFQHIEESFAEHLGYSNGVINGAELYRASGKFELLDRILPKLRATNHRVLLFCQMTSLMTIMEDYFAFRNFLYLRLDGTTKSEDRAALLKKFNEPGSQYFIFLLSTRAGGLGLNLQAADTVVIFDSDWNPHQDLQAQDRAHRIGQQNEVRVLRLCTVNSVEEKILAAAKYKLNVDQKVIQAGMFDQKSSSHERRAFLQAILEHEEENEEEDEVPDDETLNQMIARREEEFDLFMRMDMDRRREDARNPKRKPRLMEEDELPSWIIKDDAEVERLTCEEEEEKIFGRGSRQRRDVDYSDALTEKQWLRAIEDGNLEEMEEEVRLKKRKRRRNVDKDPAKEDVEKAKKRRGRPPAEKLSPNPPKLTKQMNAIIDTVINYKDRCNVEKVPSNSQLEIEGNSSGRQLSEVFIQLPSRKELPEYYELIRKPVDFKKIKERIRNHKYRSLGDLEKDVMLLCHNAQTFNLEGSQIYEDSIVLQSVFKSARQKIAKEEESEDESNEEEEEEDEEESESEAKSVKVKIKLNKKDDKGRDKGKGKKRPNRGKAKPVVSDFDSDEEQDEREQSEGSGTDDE
T1 sequence (P51532 whole entry): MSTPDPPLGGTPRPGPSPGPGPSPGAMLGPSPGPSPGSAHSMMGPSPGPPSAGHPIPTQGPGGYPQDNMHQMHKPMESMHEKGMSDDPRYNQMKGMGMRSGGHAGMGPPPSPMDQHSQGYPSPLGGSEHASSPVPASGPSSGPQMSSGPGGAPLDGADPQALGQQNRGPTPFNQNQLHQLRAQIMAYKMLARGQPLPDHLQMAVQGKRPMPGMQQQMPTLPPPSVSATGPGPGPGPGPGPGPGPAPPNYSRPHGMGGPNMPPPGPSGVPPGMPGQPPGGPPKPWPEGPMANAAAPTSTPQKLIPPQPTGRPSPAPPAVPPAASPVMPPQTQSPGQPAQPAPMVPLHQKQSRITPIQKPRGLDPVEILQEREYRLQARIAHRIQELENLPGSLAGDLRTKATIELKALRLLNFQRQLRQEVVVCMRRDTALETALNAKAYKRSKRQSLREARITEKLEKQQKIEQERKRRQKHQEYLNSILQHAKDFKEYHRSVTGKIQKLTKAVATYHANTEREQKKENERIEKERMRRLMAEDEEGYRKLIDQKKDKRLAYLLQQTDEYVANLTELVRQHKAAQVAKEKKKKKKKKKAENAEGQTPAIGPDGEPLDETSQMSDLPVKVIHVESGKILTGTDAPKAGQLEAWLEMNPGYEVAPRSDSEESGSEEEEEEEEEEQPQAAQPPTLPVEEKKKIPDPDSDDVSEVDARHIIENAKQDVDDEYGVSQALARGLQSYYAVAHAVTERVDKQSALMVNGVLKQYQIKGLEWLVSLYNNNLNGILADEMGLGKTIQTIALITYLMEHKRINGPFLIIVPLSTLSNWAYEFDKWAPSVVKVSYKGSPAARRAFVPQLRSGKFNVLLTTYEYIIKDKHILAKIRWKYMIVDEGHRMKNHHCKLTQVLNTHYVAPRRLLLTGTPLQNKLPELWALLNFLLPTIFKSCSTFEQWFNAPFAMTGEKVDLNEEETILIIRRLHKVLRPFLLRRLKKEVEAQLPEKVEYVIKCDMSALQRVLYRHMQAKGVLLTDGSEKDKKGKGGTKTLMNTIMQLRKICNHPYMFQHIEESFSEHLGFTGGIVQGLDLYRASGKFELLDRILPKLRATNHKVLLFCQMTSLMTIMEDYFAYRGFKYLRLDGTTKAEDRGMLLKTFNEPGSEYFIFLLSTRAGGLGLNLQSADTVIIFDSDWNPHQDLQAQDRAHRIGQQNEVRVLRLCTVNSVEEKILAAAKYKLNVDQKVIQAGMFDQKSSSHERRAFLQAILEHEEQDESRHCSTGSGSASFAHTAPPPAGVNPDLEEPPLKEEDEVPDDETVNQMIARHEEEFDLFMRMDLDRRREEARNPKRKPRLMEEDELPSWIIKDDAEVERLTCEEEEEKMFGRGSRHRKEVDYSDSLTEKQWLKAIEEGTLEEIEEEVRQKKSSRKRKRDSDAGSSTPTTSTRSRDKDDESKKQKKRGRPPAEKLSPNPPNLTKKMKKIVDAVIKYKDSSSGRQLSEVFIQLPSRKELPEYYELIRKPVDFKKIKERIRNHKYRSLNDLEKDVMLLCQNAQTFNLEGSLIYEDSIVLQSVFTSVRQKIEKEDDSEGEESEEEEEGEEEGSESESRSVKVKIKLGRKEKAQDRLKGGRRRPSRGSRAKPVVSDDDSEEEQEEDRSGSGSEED

As for `C[C@@H]1CN(CC2CCN(c3ccc4c(c3)C(=O)N([C@H]3CCC(=O)NC3=O)C4)CC2)[C@@H](C)CN1C(=O)N1CCN2c3cc(-c4cccc(F)c4O)nnc3NC[C@]2(C(F)F)C1` [Example 68, (S)-3-(6-(4-(((2S,5R)-4-((R)-6a-(difluoromethyl)-2-(3-fluoro-2-hydroxyphenyl)-6,6a,7,8,9,10-hexahydro-5H-pyrazino[1′,2′:4,5]pyrazino[2,3-c]pyridazine-8-carbonyl)-2,5-dimethylpiperazin-1-yl)methyl)piperidin-1-yl)-1-oxoisoindolin-2-yl)piperidine-2,6-dione], the DC50 in test [1] and in test [2] was under 100 nM throughout. For the same molecule, the Dmax in test [1] is 50 to 75%; in test [2], over 75%.

On to `C[C@@H]1CN(CC2CCN(c3ccc4c(c3)C(=O)N(C3CCC(=O)NC3=O)C4)CC2)C[C@H](C)N1C(=O)N1CCN2c3cc(-c4cccc(F)c4O)nnc3NC[C@@]2(C(F)F)C1` (stereo partly drawn) [Example 69, 3-(6-(4-(((3R,5S)-4-((S)-6a-(difluoromethyl)-2-(3-fluoro-2-hydroxyphenyl)-6,6a,7,8,9,10-hexahydro-5H-pyrazino[1′,2′:4,5]pyrazino[2,3-c]pyridazine-8-carbonyl)-3,5-dimethylpiperazin-1-yl)methyl)piperidin-1-yl)-1-oxoisoindolin-2-yl)piperidine-2,6-dione], for which the DC50 is over 1000 nM in test [1] and under 100 nM in test [2]. Moreover, the maximal degradation (Dmax) was under 50% in test [1] and over 75% in test [2].

Turning to `C[C@@H]1CN(CC2CCN(c3ccc4c(c3)C(=O)N(C3CCC(=O)NC3=O)C4)CC2)C[C@H](C)N1C(=O)N1CCN2c3cc(-c4cccc(F)c4O)nnc3NC[C@]2(C(F)F)C1` (stereo partly drawn) [Example 70, 3-(6-(4-(((3R,5S)-4-((R)-6a-(difluoromethyl)-2-(3-fluoro-2-hydroxyphenyl)-6,6a,7,8,9,10-hexahydro-5H-pyrazino[1′,2′:4,5]pyrazino[2,3-c]pyridazine-8-carbonyl)-3,5-dimethylpiperazin-1-yl)methyl)piperidin-1-yl)-1-oxoisoindolin-2-yl)piperidine-2,6-dione], the DC50 in test [1] and in test [2] was under 100 nM each time. Besides, the maximal degradation (Dmax) was 50 to 75% in test [1] and over 75% in test [2].

Turning to `C[C@@H]1C[C@H](CN2CCN(c3ccc4c(c3)C(=O)N([C@H]3CCC(=O)NC3=O)C4)CC2)C[C@H](C)N1C(=O)N1CCN2c3cc(-c4cccc(F)c4O)nnc3NC[C@@]2(C(F)F)C1` [Example 71, (S)-3-(6-(4-(((2R,4S,6S)-1-((S)-6a-(difluoromethyl)-2-(3-fluoro-2-hydroxyphenyl)-6,6a,7,8,9,10-hexahydro-5H-pyrazino[1′,2′:4,5]pyrazino[2,3-c]pyridazine-8-carbonyl)-2,6-dimethylpiperidin-4-yl)methyl)piperazin-1-yl)-1-oxoisoindolin-2-yl)piperidine-2,6-dione], in test [1], the DC50 fell in the range of 100 to 1000 nM and the Dmax was under 50%. Besides, in test [2], the DC50 is under 100 nM and the maximal degradation (Dmax) was over 75%.

Regarding `C[C@@H]1C[C@H](CN2CCN(c3ccc4c(c3)C(=O)N([C@H]3CCC(=O)NC3=O)C4)CC2)C[C@H](C)N1C(=O)N1CCN2c3cc(-c4cccc(F)c4O)nnc3NC[C@]2(C(F)F)C1` [Example 72, (S)-3-(6-(4-(((2R,4R,6S)-1-((R)-6a-(difluoromethyl)-2-(3-fluoro-2-hydroxyphenyl)-6,6a,7,8,9,10-hexahydro-5H-pyrazino[1′,2′:4,5]pyrazino[2,3-c]pyridazine-8-carbonyl)-2,6-dimethylpiperidin-4-yl)methyl)piperazin-1-yl)-1-oxoisoindolin-2-yl)piperidine-2,6-dione], the DC50 in test [1] and in test [2] was under 100 nM each time. In addition, the Dmax in test [1] and in test [2] was over 75% in each case.

As to `CC1(C)CC(CN2CCN(c3ccc4c(c3)C(=O)N([C@H]3CCC(=O)NC3=O)C4)CC2)CCN1C(=O)N1CCN2c3cc(-c4cccc(F)c4O)nnc3NC[C@@]2(C(F)F)C1` (stereo partly drawn) [Example 73, (3S)-3-(6-(4-((1-((S)-6a-(difluoromethyl)-2-(3-fluoro-2-hydroxyphenyl)-6,6a,7,8,9,10-hexahydro-5H-pyrazino[1′,2′:4,5]pyrazino[2,3-c]pyridazine-8-carbonyl)-2,2-dimethylpiperidin-4-yl)methyl)piperazin-1-yl)-1-oxoisoindolin-2-yl)piperidine-2,6-dione], the DC50 is 100 to 1000 nM in test [1] and under 100 nM in test [2]. Besides, the Dmax in test [1] is under 50%; in test [2] it was over 75%.

Regarding `O=C1CCC(N2Cc3ccc(N4CCN(C[C@H]5CC[C@H](C(=O)N6CCN7c8cc(-c9cccc(F)c9O)nnc8NC[C@H]7C6)CC5)CC4)cc3C2=O)C(=O)N1` (stereo partly drawn) [Example 104, 3-(6-(4-(((1S,4r)-4-((S)-2-(3-fluoro-2-hydroxyphenyl)-6,6a,7,8,9,10-hexahydro-5H-pyrazino[1′,2′:4,5]pyrazino[2,3-c]pyridazine-8-carbonyl)cyclohexyl)methyl)piperazin-1-yl)-1-oxoisoindolin-2-yl)piperidine-2,6-dione], the DC50 is 100 to 1000 nM in test [1] and under 100 nM in test [2]. Moreover, the greatest degradation seen (Dmax) in test [1] was under 50%; in test [2], over 75%.

Turning to `O=C1CC[C@H](N2Cc3ccc(N4CCC(CN5CCC(F)(C(=O)N6CCN7c8cc(-c9cc(F)cc(F)c9O)nnc8NC[C@]7(C(F)F)C6)CC5)CC4)cc3C2=O)C(=O)N1` [Example 105, (S)-3-(6-(4-((4-((R)-2-(3,5-difluoro-2-hydroxyphenyl)-6a-(difluoromethyl)-6,6a,7,8,9,10-hexahydro-5H-pyrazino[1′,2′:4,5]pyrazino[2,3-c]pyridazine-8-carbonyl)-4-fluoropiperidin-1-yl)methyl)piperidin-1-yl)-1-oxoisoindolin-2-yl)piperidine-2,6-dione], the DC50 in test [1] and in test [2] was under 100 nM throughout. In addition, the Dmax in test [1] was 50 to 75%; in test [2], over 75%.

In test [1], `O=C1CC[C@H](N2Cc3ccc(N4CCN(C[C@H]5CC[C@H](CN6CCN7c8cc(-c9cccc(F)c9O)nnc8NC[C@H]7C6)CC5)CC4)cc3C2=O)C(=O)N1` [Example 114, (S)-3-(6-(4-(((1S,4S)-4-(((S)-2-(3-fluoro-2-hydroxyphenyl)-5,6,6a,7,9,10-hexahydro-8H-pyrazino[1′,2′:4,5]pyrazino[2,3-c]pyridazin-8-yl)methyl)cyclohexyl)methyl)piperazin-1-yl)-1-oxoisoindolin-2-yl)piperidine-2,6-dione] displayed a DC50 of under 100 nM and a maximal degradation (Dmax) of 50 to 75%. For the same molecule, in test [2], the DC50 was under 100 nM and the Dmax was over 75%.

In test [1], `CC1(C)CN(CC2CCN(c3ccc4c(c3)C(=O)N(C3CCC(=O)NC3=O)C4)CC2)CCC1C(=O)N1CCN2c3cc(-c4cc(F)cc(F)c4O)nnc3NC[C@H]2C1` (stereo partly drawn) [Example 119, 3-(6-(4-((4-((S)-2-(3,5-difluoro-2-hydroxyphenyl)-6,6a,7,8,9,10-hexahydro-5H-pyrazino[1′,2′:4,5]pyrazino[2,3-c]pyridazine-8-carbonyl)-3,3-dimethylpiperidin-1-yl)methyl)piperidin-1-yl)-1-oxoisoindolin-2-yl)piperidine-2,6-dione] gave a DC50 of 100 to 1000 nM and a Dmax of under 50%. Moreover, in test [2], the DC50 was under 100 nM and the maximal degradation (Dmax) was over 75%.

In test [1], `CC1(C)CC(CN2CCN(c3ccc4c(c3)C(=O)N(C3CCC(=O)NC3=O)C4)CC2)CCN1C(=O)N1CCN2c3cc(-c4cccc(F)c4O)nnc3NC[C@H]2C1` (stereo partly drawn) [Example 122, 3-(6-(4-((1-((S)-2-(3-fluoro-2-hydroxyphenyl)-6,6a,7,8,9,10-hexahydro-5H-pyrazino[1′,2′:4,5]pyrazino[2,3-c]pyridazine-8-carbonyl)-2,2-dimethylpiperidin-4-yl)methyl)piperazin-1-yl)-1-oxoisoindolin-2-yl)piperidine-2,6-dione] yielded a DC50 of under 100 nM and a Dmax of 50 to 75%. In test [2], the DC50 is under 100 nM and the Dmax is over 75%.

One may read the Dmax as the greatest extent of degradation seen. A high value points to a fuller loss of target.
